Measured values as given in patent publication US20240002361A1, “COMPOSITIONS AND METHODS FOR BLOCKING NEUROPILIN RECEPTOR 1 FOR THE TREATMENT OF PAIN AND PREVENTION OF VIRAL ENTRY” (Arizona Board of Regents on Behalf of the University of …, priority 2020, published 2024).
pIC50: −log10 of the molar value. Converted amounts (≈) assume the structure as drawn. “And” between values parts separate entries of the source, which are not always exact repeats. Equal entries are not always repeated.

Columns and labels:
NRP-1/VEGF-A interaction [1] = biological target: T1, NRP-1/VEGF-A interaction (Homo sapiens, UniProt O14786); assay: ELISA-based NRP1-VEGF-A165 protein binding assay (single concentration); details: compounds 12.5 μM (Spike S1 100 nM), biotinylated VEGF-A165 10 nM; ± standard error of the mean, n = 11
T1 construct: coated with the extracellular domain of human NRP-1 (containing the a1a2 and the b1b2 regions); purchased Fisher, Hampton, NH 50-101-8343
T1 sequence (O14786 22-856 limits assumed): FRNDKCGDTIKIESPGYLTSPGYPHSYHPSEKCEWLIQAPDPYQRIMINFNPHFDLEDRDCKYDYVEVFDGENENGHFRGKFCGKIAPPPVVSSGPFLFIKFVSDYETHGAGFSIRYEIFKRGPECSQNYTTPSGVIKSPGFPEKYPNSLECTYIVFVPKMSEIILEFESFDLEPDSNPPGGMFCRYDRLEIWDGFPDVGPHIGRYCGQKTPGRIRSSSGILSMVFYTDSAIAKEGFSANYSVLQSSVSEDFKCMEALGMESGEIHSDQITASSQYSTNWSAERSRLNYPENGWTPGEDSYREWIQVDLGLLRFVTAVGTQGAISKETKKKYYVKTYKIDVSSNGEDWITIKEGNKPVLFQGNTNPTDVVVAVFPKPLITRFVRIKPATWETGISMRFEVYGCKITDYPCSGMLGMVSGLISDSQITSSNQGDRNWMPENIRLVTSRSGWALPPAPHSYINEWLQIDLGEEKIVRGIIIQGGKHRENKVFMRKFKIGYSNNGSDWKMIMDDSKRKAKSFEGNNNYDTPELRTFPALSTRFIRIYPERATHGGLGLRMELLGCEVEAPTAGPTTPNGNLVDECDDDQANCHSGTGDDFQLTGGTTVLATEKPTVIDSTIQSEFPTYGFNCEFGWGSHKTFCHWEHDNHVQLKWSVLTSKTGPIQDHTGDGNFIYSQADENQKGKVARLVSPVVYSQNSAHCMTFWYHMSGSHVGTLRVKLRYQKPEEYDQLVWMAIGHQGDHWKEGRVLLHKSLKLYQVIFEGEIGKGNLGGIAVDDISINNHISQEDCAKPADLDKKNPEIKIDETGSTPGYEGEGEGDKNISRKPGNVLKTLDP

physchem = type: physicochemical; details: for logD: pH 7.4; for solubility kinetic: pH 7.4, aqueous buffer, kinetic from dmso stock
Experimental: (§1) Additionally, an initial absorption, distribution, metabolism, and excretion (ADME) profile of the compound series was performed (Table 4).

HepG2 cells = assay: Cell proliferation and cytotoxicity in HepG2 cells (CellTiterGlo); type: cell-based; details: Homo sapiens, 48 h
Experimental: as §1

NRP-1/VEGF-A interaction [2] = biological target: T1, NRP-1/VEGF-A interaction; assay: ELISA-based NRP1-VEGF-A165 protein binding assay (concentration-response, IC50); details: 20 nM biotinylated hVEGF-A165 with 4 μg/ml heparin, n=3, read-out: Calculated IC50 values of inhibiting the NRP-1/VEGF-A interaction
Experimental: Plates (96-well, Nunc Maxisorp; Thermo Fisher Scientific, Waltham, MA, USA) were coated with human Neuropilin-1-Fc (200 ng per well, Cat #50-101-8343, Fisher, Hampton, NH) and incubated at 4° C. overnight. The following day, the plates were washed and blocked with 3% BSA in PBS to minimize non-specific adsorptive binding to the plates. EG00229 (Cat #6986, Tocris) or the indicated compounds were added at different concentrations and incubated for 30 min at room temperature prior to adding biotinylated human VEGF-A165 (Cat #BT10543-025, R&D systems) at 20 nM with 4 μg/ml of heparin. As a negative control, some wells received PBS containing 3% BSA and as a positive control only hVEGF-A165 was used. The plates were incubated at room temperature with shaking for 2 h. Next, the plates were washed with PBS 0.05% Tween to eliminate unbound protein. Bound biotinylated VEGF was detected by streptavidin-HRP (Cat #016-030-084, Jackson immunoResearch). Tetramethylbenzidine (Cat #DY999, R&D Systems, St. Louis, MO) was used as the colorimetric substrate. The optical density of each well was determined immediately, using a microplate reader (Multiskan Ascent; Thermo Fisher Scientific) set to 450 nm with a correction wavelength of 570 nm. Percentage of inhibition was calculated by the following formula: […]
where S is the optical density measured in the wells with the compounds, N is the optical density measured in the negative control wells and P is the optical density in the positive control wells. The IC50 was calculated using a non-linear regression function with GraphPad Prism Version 9. The data are presented as log (inhibitor) [M] versus normalized response-variable slope. Data are the means±S.E.M. of three independent experiments.
Finally, the ability of the compounds to interfere with the NRP-1NEGF-A interaction was evaluated using an enzyme linked immunosorbent assay (ELISA), as previously described (Moutal, et al., Pain 2021, 12(1), 243-252). Plates were coated with the extracellular domain of human NRP-1 (containing the a1a2 and the b1b2 regions) and the compounds were added to disrupt the NRP-1NEGF-A interaction. The biotinylated human VEGF-A used in the experiments described above (Moutal, et al., Pain 2021, 12(1), 243-252) was discontinued. For the instant studies, biotinylated hVEGF-A (Cat #BT10543-025, R&D systems) was used. Because of that, the known NRP-1 antagonist EG00229 and compound 4 from the above series of inhibitors (Moutal, et al., Pain 2021, 12(1), 243-252) were also tested in the instant studies.

in vitro = in vitro ADME; details: microsomes
Experimental: as §1

O=C(O)Cc1cnc(-c2cccnc2)[nH]c1=O [Compound 11]
Rel % inhibition (NRP-1/VEGF-A interaction [1]): 43 ± 16%

COc1cccc(-c2cc(=O)[nH]c(Nc3cccc(O)c3)n2)c1 [Compound 1c, 2-(3-hydroxyanilino)-4-(3-methoxyphenyl)-1H-pyrimidin-6-one]
logD (physchem): 2.49
solubility kinetic (physchem): 14.2 µM (≈ 4.39 µg/mL)
pIC50 (HepG2 cells): < 4.52
pIC50 (NRP-1/VEGF-A interaction [2]): 4.64
half-life (in vitro; human): > 120 min
half-life (in vitro; mouse): 71.7 min
half-life (in vitro; rat): 4.4 min

O=c1cnnc(Nc2ccccc2O)[nH]1 [Compound 8]
Rel % inhibition (NRP-1/VEGF-A interaction [1]): 24 ± 16%

COc1ccccc1Nc1nc(-c2cnc(N3CCCC3)nc2C)cc(=O)[nH]1 [Compound 5]
Rel % inhibition (NRP-1/VEGF-A interaction [1]): 42 ± 10%

COc1cccc(-c2cc(=O)[nH]c(Nc3ccccc3)n2)c1 [Compound 1]
Rel % inhibition (NRP-1/VEGF-A interaction [1]): 56 ± 7%

COc1cccc(-c2nc(Nc3ccccc3)cc(=O)[nH]2)c1 [Compound 1b, 4-anilino-2-(3-methoxyphenyl)-1H-pyrimidin-6-one]
logD (physchem): 3.78
solubility kinetic (physchem): 3.5 µM (≈ 1.03 µg/mL)
pIC50 (HepG2 cells): < 4.52
pIC50 (NRP-1/VEGF-A interaction [2]): 3.95
half-life (in vitro; human): 14.8 min
half-life (in vitro; mouse): 9.4 min
half-life (in vitro; rat): 8.3 min

COc1cc(-c2cc(=O)[nH]c(Nc3ccc(Cl)c(O)c3)n2)ccn1 [Compound 1d, 2-(4-chloro-3-hydroxy-anilino)-4-(2-methoxy-4-pyridyl)-1H-pyrimidin-6-one]
logD (physchem): 3.15
solubility kinetic (physchem): 19.4 µM (≈ 6.69 µg/mL)
pIC50 (HepG2 cells): < 4.52
pIC50 (NRP-1/VEGF-A interaction [2]): 3.87
half-life (in vitro; human): 28.4 min
half-life (in vitro; mouse): 59.7 min
half-life (in vitro; rat): 14.1 min

CC(C)Cc1cc(C(=O)NCCO)nc(=O)[nH]1 [Compound 2a, N-(2-hydroxyethyl)-6-isobutyl-2-oxo-1H-pyrimidine-4-carboxamide]
logD (physchem): 0.02
solubility kinetic (physchem): > 200 µM
pIC50 (HepG2 cells): < 4.52
pIC50 (NRP-1/VEGF-A interaction [2]): ≥ 4.49 and 5.74
half-life (in vitro; human): > 120 min
half-life (in vitro; mouse): > 120 min
half-life (in vitro; rat): > 120 min

COc1cc(-c2cc(=O)[nH]c(Nc3ccccc3)n2)ccn1 [Compound 1s, 2-anilino-4-(2-methoxy-4-pyridyl)-1H-pyrimidin-6-one]
logD (physchem): 3.15
solubility kinetic (physchem): 11.5 µM (≈ 3.38 µg/mL)
pIC50 (HepG2 cells): < 4.52
pIC50 (NRP-1/VEGF-A interaction [2]): 2.99
half-life (in vitro; human): 16.6 min
half-life (in vitro; mouse): 13.6 min
half-life (in vitro; rat): 9.4 min

CC(C)Cc1cc(C(=O)NCC2CCOC2)nc(=O)[nH]1 (centres unmarked) [Compound 2]
Rel % inhibition (NRP-1/VEGF-A interaction [1]): 59 ± 11%

COc1cccc(-c2cc(Nc3ccccc3)[nH]c(=O)n2)c1 [Compound 1b-iso, 6-anilino-4-(3-methoxyphenyl)-1H-pyrimidin-2-one]
logD (physchem): 2.78
solubility kinetic (physchem): 4.7 µM (≈ 1.38 µg/mL)
pIC50 (HepG2 cells): < 4.52
pIC50 (NRP-1/VEGF-A interaction [2]): 3.98
half-life (in vitro; human): 102 min
half-life (in vitro; mouse): 22 min
half-life (in vitro; rat): 4.4 min

COc1cccc(-c2cc(=O)[nH]c(Nc3ccnc(N)c3)n2)c1 [Compound 1a, 2-[(2-amino-4-pyridyl)amino]-4-(3-methoxyphenyl)-1H-pyrimidin-6-one]
logD (physchem): 1.64
solubility kinetic (physchem): 184 µM (≈ 56.9 µg/mL)
pIC50 (HepG2 cells): < 4.52
pIC50 (NRP-1/VEGF-A interaction [2]): 3.67
half-life (in vitro; human): > 120 min
half-life (in vitro; mouse): 29.3 min
half-life (in vitro; rat): 3.8 min

COc1cccc(-c2nc(Nc3c[nH]c(C(=O)O)c3)cc(=O)[nH]2)c1 [1g′, 4-[[2-(3-methoxyphenyl)-6-oxo-1H-pyrimidin-4-yl]amino]-1H-pyrrole-2-carboxylic acid]
logD (physchem): -0.62
solubility kinetic (physchem): > 200 µM
pIC50 (HepG2 cells): < 4.52
pIC50 (NRP-1/VEGF-A interaction [2]): 4.55
half-life (in vitro; human): > 120 min
half-life (in vitro; mouse): > 120 min
half-life (in vitro; rat): > 120 min

O=c1cc(Nc2cccc(O)c2)[nH]c(=O)[nH]1 [Compound 9c, 6-(3-hydroxyanilino)-1H-pyrimidine-2,4-dione]
logD (physchem): 0.38
solubility kinetic (physchem): > 200 µM
pIC50 (HepG2 cells): < 4.52
pIC50 (NRP-1/VEGF-A interaction [2]): 3.33
half-life (in vitro; human): > 120 min
half-life (in vitro; mouse): > 120 min
half-life (in vitro; rat): > 120 min

COc1cccc(-c2cc(=O)[nH]c(Nc3ccccc3)n2)n1 [Compound 1u, 2-anilino-4-(6-methoxy-2-pyridyl)-1H-pyrimidin-6-one]
logD (physchem): 3.51
solubility kinetic (physchem): 10.4 µM (≈ 3.06 µg/mL)
pIC50 (HepG2 cells): < 4.52
pIC50 (NRP-1/VEGF-A interaction [2]): 3.43
half-life (in vitro; human): 18.9 min
half-life (in vitro; mouse): 9.6 min
half-life (in vitro; rat): 3.9 min

COc1cccc(-c2cc(=O)[nH]c(Nc3cc[nH]n3)n2)c1 [Compound 1t, 4-(3-methoxyphenyl)-2-(1H-pyrazol-3-ylamino)-1H-pyrimidin-6-one]
logD (physchem): 2.67
solubility kinetic (physchem): 48.7 µM (≈ 13.8 µg/mL)
pIC50 (HepG2 cells): < 4.52
pIC50 (NRP-1/VEGF-A interaction [2]): 3.89
half-life (in vitro; human): 64.5 min
half-life (in vitro; mouse): 4.5 min
half-life (in vitro; rat): 12.7 min

COc1cccc(-c2cc(=O)[nH]c(Nc3c[nH]c(C(=O)O)c3)n2)c1 [1g′-iso, 4-[[4-(3-methoxyphenyl)-6-oxo-1H-pyrimidin-2-yl]amino]-1H-pyrrole-2-carboxylic acid]
logD (physchem): -0.38
solubility kinetic (physchem): > 200 µM
pIC50 (HepG2 cells): < 4.52
pIC50 (NRP-1/VEGF-A interaction [2]): 4.49
half-life (in vitro; human): > 120 min
half-life (in vitro; mouse): > 120 min
half-life (in vitro; rat): > 120 min

COc1ccc(C)c(-c2cc(=O)[nH]c(Nc3ccccc3)n2)c1 [Compound 1v, 2-anilino-4-(5-methoxy-2-methyl-phenyl)-1H-pyrimidin-6-one]
logD (physchem): 2.91
solubility kinetic (physchem): 8 µM (≈ 2.46 µg/mL)
pIC50 (HepG2 cells): < 4.52
half-life (in vitro; human): > 120 min
half-life (in vitro; mouse): > 120 min
half-life (in vitro; rat): 4.7 min
